Measurements reported in ChEMBL document CHEMBL5634111, “Design, synthesis, and anti-respiratory syncytial virus potential of novel 3-(1,2,3-triazol-1-yl)furoxazine-fused benzimidazole derivatives” (Eur J Med Chem, 2023).

Legend:
[1] = Cytotoxicity against human HepG2 cells measured after 24 hrs by MTT assay; assay type: toxicity, cell-based
[2] = tested on: Respiratory syncytial virus; experiment: Antiviral activity against RSV infected in human HepG2 cells preincubated for 24 hrs followed by viral infection for 2 hrs and measured after 60 hrs by MTT assay; assay type: functional, organism-based
[3] = Selectivity index, ratio of CC50 for human HepG2 cells to EC50 for RSV infected in human HepG2 cells; assay type: toxicity, cell-based; settings: read-out: Ratio CC50/EC50

SMILES	CC50 at 24 h [1]	EC50 [2]	selectivity ratio [3]
Brc1cc2nc3n(c2cc1Br)[C@H]1OC[C@H](n2cc(-c4ccccc4)nn2)[C@H]1OC3	63.6 µM	–	–
CCCCCCc1cn([C@H]2CO[C@H]3[C@@H]2OCc2nc4cc(Br)c(Br)cc4n23)nn1	52.3 µM	–	–
OCc1cn([C@H]2CO[C@H]3[C@@H]2OCc2nc4cc(Br)c(Br)cc4n23)nn1	104 µM	–	–
Cc1c(Br)cc2nc3n(c2c1Br)[C@H]1OC[C@H](n2cc(-c4ccccc4)nn2)[C@H]1OC3	53.3 µM	–	–
Brc1cc2nc3n(c2cc1Br)[C@H]1OC[C@H](n2cc(C4CC4)nn2)[C@H]1OC3	40 µM	6.26 µM	6.39
CCOC(=O)c1cn([C@H]2CO[C@H]3[C@@H]2OCc2nc4cc(Br)c(Br)cc4n23)nn1	26.9 µM	–	–
OCCCc1cn([C@H]2CO[C@H]3[C@@H]2OCc2nc4cc(Br)c(Br)cc4n23)nn1	150 µM	–	–
Brc1cc2nc3n(c2cc1Br)[C@H]1OC[C@H](n2cc(COc4ccccc4)nn2)[C@H]1OC3	121 µM	21.9 µM	5.73
OCCc1cn([C@H]2CO[C@H]3[C@@H]2OCc2nc4cc(Br)c(Br)cc4n23)nn1	70.1 µM	–	–
Cc1cn([C@H]2CO[C@H]3[C@@H]2OCc2nc4cc(Br)c(C)c(Br)c4n23)nn1	94.6 µM	14.2 µM	6.68
CCCCCc1cn([C@H]2CO[C@H]3[C@@H]2OCc2nc4cc(Br)c(Br)cc4n23)nn1	237 µM	–	–
NC(=O)c1ncn([C@@H]2O[C@H](CO)[C@@H](O)[C@H]2O)n1 [RIBAVIRIN]	246 µM	8.41 µM	29.2
